Test results: paper PMC7837216, “ISRIB Blunts the Integrated Stress Response by Allosterically Antagonising the Inhibitory Effect of Phosphorylated eIF2 on eIF2B” (Molecular Cell, 2021)

What was measured:
[1] = target: T1, eIF2B (decamer; ISRIB pocket formed by the β- and δ-subunits) (Homo sapiens, UniProt P49770+Q9UI10); experiment: FP competition with FAM-ISRIB; BLI (ISRIB-induced dissociation of eIF2B from P-eIF2α-NTD); assay type: binding; design: gene EIF2B2; purified recombinant human eIF2B decamer; with eIF2Bβ (EIF2B2), with eIF2Bα, γ, ε in the decamer; P-eIF2α-NTD immobilised in the BLI assay
[2] = target: T1, eIF2B (decamer; ISRIB pocket formed by the β- and δ-subunits); experiment: fluorescence polarization, kinetic displacement by unlabelled ISRIB (koff); assay type: binding; design: gene EIF2B2; purified recombinant human eIF2B decamer; with eIF2Bβ (EIF2B2), with eIF2Bα, γ, ε in the decamer

EC50 [1] [nM]	fluorescence polarization, kinetic displacement by unlabelled ISRIB (koff) [2] [s⁻¹]	Molecule
1.8		O=C(COc1ccc(Cl)cc1)N[C@H]1CC[C@H](NC(=O)COc2ccc(Cl)cc2)CC1 [ISRIB]
	0.0123	FAM-ISRIB
